Tests used:
Pythium ultimum [1] = assay: Limit concentration of soil-fungicidal effectiveness, Pythium ultimum infested soil, peas (Example 1); type: in vivo; details: 20 to 23 days, 22°-25° C., germination at least 90% vs steamed soil; for minimal effective concentration: Globisporangium ultimum
Description: Limit concentrations of the soil-fungicidal effectiveness at homogeneous mixture of the products with the infested soil. Basic condition in the evaluation are a sound root formation without fungus necroses and germination of the seed of at least 90% compared with the result obtained in steamed soil. Per concentration there were seeded 25 grains of peas of the variety "Miracle of Kelvedon" (marrow pea) without a waiting period. the cultivation time in the tests was 20 to 23 days at a temperature of 22°-25° C. Four commercial products were included in the test series.
Pythium ultimum: Steamed compost soil was inoculated with mycelium of Pythium ultimum

Aspergillus niger = assay: Agar test, Aspergillus niger (Example 7); type: cell-based; details: 10 ppm in malt extract agar, 5 days at 22° C.; control 100
Description: (§1) The fungicidal action of the agents according to the invention was tested in artificial nutrient media against plant-pathogenic fungi in Petri dishes (agar test). The procedure was to sterilize the medium consisting of 2% malt extract and 1.5% agar-agar powder. Before the solidification of the medium, the active substances were added to it, mixing thoroughly, so that the medium received 10 parts of active substance per million (ppm). After the solidification of the medium, the latter was inoculated with a platinum dropper which contained 100 spores each of the fungi to be tested, and after 5 days at 22° C., an evaluation was made by measuring the diameter of the colonies in mm.

Stemphylium ilicis = assay: Agar test, Stemphylium ilicis (Example 7); type: cell-based; details: 10 ppm in malt extract agar, 5 days at 22° C.; control 100
Description: as §1

Pythium ultimum [2] = assay: Pea test in soil inoculated with Pythium ultimum (Example 2); type: in vivo; design: key to Root evaluation (1-4): 4 = white roots, no necroses … 1 = severe necroses, roots rotted; details: for Root evaluation (1-4): 3 weeks
Description: Steamed compost soil was inoculated with mycelium of Pythium ultimum. […] The following table lists the number of germinated sound peas, the weight of the fresh plant, and a root evaluation after a cultivation period of 3 weeks at 22°-25° C.
4 = white roots, without fungus necroses
3 = white roots, slight fungus necroses
2 = brown roots, more intense fungus necroses
1 = severe fungus necroses, roots rotted

Rhizoctonia solani = assay: Pea test in soil inoculated with Rhizoctonia solani (Example 3); type: in vivo; details: for Root evaluation (1-4): 3 weeks; for Number of sound peas after 3 wks.: 25 grains seeded
Text: Steamed compost soil was inoculated with mycelium of Rhizoctonia solani. After homogeneous mixture of the products with the infested soil, the products were present in the form of 20% powder preparations, the seeding of 25 grains of marrow peas of the variety Miracle of Kelvedon per concentration was effected without waiting period in clay dishes holding 1 liter of soil. The table lists the number of germinated sound peas, the weight of the fresh plant, and a root evaluation after a cultivation period of 3 weeks at 22°-25° C.

[3] = 10 mg active ingr. per liter of soil
[4] = 20 mg active ingr. per liter of soil
[5] = 30 mg active ingr. per liter of soil
[6] = 50 mg active ingr. per liter of soil
[7] = 100 mg active ingr. per liter of soil

| Compound | minimal effective concentration (Pythium ultimum [1]) [µg/mL] | further results |
| --- | --- | --- |
| C[S+]([O-])c1nnc(CCl)s1 (stereo not shown) [Compound 2, 2-chloromethyl-5-methylsulfinyl-1,3,4-thiadiazole] | 30 |  |
| CC(C)[S+]([O-])c1nnc(C(Cl)Cl)s1 (stereo not shown) [Compound 6, 2-dichloromethyl-5-isopropylsulfinyl-1,3,4-thiadiazole] | > 200 |  |
| CCCCC[S+]([O-])c1nnc(C(Cl)Cl)s1 (stereo not shown) [Compound 7, 2-dichloromethyl-5-amylsulfinyl 1,3,4-thiadiazole] | > 200 | diameter of the colonies, Aspergillus niger (Aspergillus niger): 0 mm; diameter of the colonies, Stemphylium ilicis (Stemphylium ilicis): 0 mm |
| CCC[S+]([O-])c1nnc(C(Cl)(Cl)Cl)s1 (stereo not shown) [Compound 10, 2-trichloromethyl-5-propylsulfinyl-1,3,4-thiadiazole] | 100 | diameter of the colonies, Aspergillus niger (Aspergillus niger): 0 mm; diameter of the colonies, Stemphylium ilicis (Stemphylium ilicis): 0 mm |
| CC(C)[S+]([O-])c1nnc(C(Cl)(Cl)Cl)s1 (stereo not shown) [Compound 11, 2-trichloromethyl-5-isopropylsulfinyl-1,3,4-thiadiazole] | > 200 |  |
| CCCC[S+]([O-])c1nnc(C(Cl)(Cl)Cl)s1 (stereo not shown) [Compound 12, 2-trichloromethyl-5-butylsulfinyl-1,3,4-thiadiazole] | 200 | diameter of the colonies, Aspergillus niger (Aspergillus niger): 0 mm; diameter of the colonies, Stemphylium ilicis (Stemphylium ilicis): 0 mm |
| CCCCCCC[S+]([O-])c1nnc(C(Cl)(Cl)Cl)s1 (stereo not shown) [Compound 13, 2-trichloromethyl-5-heptylsulfinyl-1,3,4-thiadiazole] | > 200 | diameter of the colonies, Aspergillus niger (Aspergillus niger): 0 mm; diameter of the colonies, Stemphylium ilicis (Stemphylium ilicis): 0 mm |
| CCCCCCCC[S+]([O-])c1nnc(C(Cl)(Cl)Cl)s1 (stereo not shown) [Compound 14, 2-trichloromethyl-5-octylsulfinyl-1,3,4-thiadiazole] | > 200 |  |
| CS(=O)(=O)c1nnc(CCl)s1 [Compound 15, 2-chloromethyl-5-methylsulfonyl-1,3,4-thiadiazole] | 10 | Root evaluation (1-4) (Pythium ultimum [2]; [3]): 4; Root evaluation (1-4) (Pythium ultimum [2]; [4]): 4; Root evaluation (1-4) (Pythium ultimum [2]; [5]): 4 |
| CC(C)S(=O)(=O)c1nnc(CCl)s1 [Compound 16, 2-chloromethyl-5-isopropylsulfonyl-1,3,4-thiadiazole] | 150 |  |
| CC(C)S(=O)(=O)c1nnc(C(Cl)Cl)s1 [Compound 20, 2-dochloromethyl-5-isopropylsulfonyl-1,3,4-thiadiazole] | 200 |  |
| CCS(=O)(=O)c1nnc(C(Cl)(Cl)Cl)s1 [Compound 22, 2-trichloromethyl-5-ethylsulfonyl-1,3,4-thiadiazole] | 50 | diameter of the colonies, Aspergillus niger (Aspergillus niger): 0 mm; diameter of the colonies, Stemphylium ilicis (Stemphylium ilicis): 0 mm |
| CC(C)S(=O)(=O)c1nnc(C(Cl)(Cl)Cl)s1 [Compound 24, 2-trichloromethyl-5-isopropylsulfonyl-1,3,4-thiadiazole] | 150 | diameter of the colonies, Aspergillus niger (Aspergillus niger): 0 mm; diameter of the colonies, Stemphylium ilicis (Stemphylium ilicis): 0 mm |
| CCCCS(=O)(=O)c1nnc(C(Cl)(Cl)Cl)s1 [Compound 25, 2-trichloromethyl-5-butylsulfonyl-1,3,4-thiadiazole] | > 200 | diameter of the colonies, Aspergillus niger (Aspergillus niger): 0 mm; diameter of the colonies, Stemphylium ilicis (Stemphylium ilicis): 0 mm |
| CCCCCS(=O)(=O)c1nnc(C(Cl)(Cl)Cl)s1 [Compound 26, 2-trichloromethyl-5-amylsulfonyl-1,3,4-thiadiazole] | > 200 | diameter of the colonies, Aspergillus niger (Aspergillus niger): 0 mm; diameter of the colonies, Stemphylium ilicis (Stemphylium ilicis): 0 mm |
| CCCCCCS(=O)(=O)c1nnc(C(Cl)(Cl)Cl)s1 [Compound 27, 2-trichloromethyl-5-hexylsulfonyl-1,3,4-thiadiazole] | > 200 | diameter of the colonies, Aspergillus niger (Aspergillus niger): 0 mm; diameter of the colonies, Stemphylium ilicis (Stemphylium ilicis): 0 mm |
| CCCCCCCS(=O)(=O)c1nnc(C(Cl)(Cl)Cl)s1 [Compound 28, 2-trichloromethyl-5-heptysulfonyl-1,3,4-thiadiazole] | > 200 | diameter of the colonies, Aspergillus niger (Aspergillus niger): 0 mm; diameter of the colonies, Stemphylium ilicis (Stemphylium ilicis): 0 mm |
| CCCCCCCCS(=O)(=O)c1nnc(C(Cl)(Cl)Cl)s1 [Compound 29, 2-trichloromethyl-5-octylsulfonyl-1,3,4-thiadiazole] | > 200 | diameter of the colonies, Aspergillus niger (Aspergillus niger): 19 mm; diameter of the colonies, Stemphylium ilicis (Stemphylium ilicis): 0 mm |
| CS(=O)(=O)c1nnc(CBr)s1 [Compound 30, 2-bromomethyl-5-methylsulfonyl-1,3,4-thiadiazole] | 20 | Root evaluation (1-4) (Pythium ultimum [2]; [3]): 1; Number of sound peas after 3 wks. (Pythium ultimum [2]; 10 mg active ingr. per liter of soil, 25 grains seeded): 21; Root evaluation (1-4) (Pythium ultimum [2]; [4]): 4; Root evaluation (1-4) (Pythium ultimum [2]; [5]): 4 |

| Compound | minimal effective concentration (Pythium ultimum [1]) [µg/mL] | further results |
| --- | --- | --- |
| CCS(=O)(=O)c1nnc(CBr)s1 [Compound 31, 2-bromomethyl-5-ethylsulfonyl-1,3,4-thiadiazole] | 50 |  |
| C[S+]([O-])c1nnc(CF)s1 (stereo not shown) [Compound 33, 2-fluoromethyl-5-methylsulfinyl-1,3,4-thiadiazole] | 50 |  |
| CS(=O)(=O)c1nnc(CF)s1 [Compound 34, 2-fluoromethyl-5-methylsulfonyl-1,3,4-thiadiazole] | 50 |  |
| CC(C)C[S+]([O-])c1nnc(C(F)(F)F)s1 (stereo not shown) [Compound 37, 2-trifluoromethyl-5-isobutylsulfinyl-1,3,4-thiadiazole] | 30 |  |
| CCCCC[S+]([O-])c1nnc(C(F)(F)F)s1 (stereo not shown) [Compound 38, 2-trifluoromethyl-5-pentylsulfinyl-1,3,4-thiadiazole] | 100 |  |
| CCCCCC[S+]([O-])c1nnc(C(F)(F)F)s1 (stereo not shown) [Compound 39, 2-trifluoromethyl-5-hexylsulfinyl-1,3,4-thiadiazole] | 100 |  |
| CC(C)S(=O)(=O)c1nnc(C(F)(F)F)s1 [Compound 41, 2-trifluoromethyl-5-isopropylsulfonyl-1,3,4-thiadiazole] | 10 |  |
| CC(C)CS(=O)(=O)c1nnc(C(F)(F)F)s1 [Compound 42, 2-trifluoromethyl-5-isobutylsulfonyl-1,3,4-thiadiazole] | 20 |  |
| CCCCCCS(=O)(=O)c1nnc(C(F)(F)F)s1 [Compound 43, 2-trifluoromethyl-5-hexylsulfonyl-1,3,4-thiadiazole] | > 100 |  |
| CCCCCCCS(=O)(=O)c1nnc(C(F)(F)F)s1 [Compound 44, 2-trifluoromethyl-5-heptylsulfonyl-1,3,4-thiadiazole] | > 100 |  |
| CS(=O)(=O)c1nnc(C(F)(F)C(F)(F)F)s1 [Compound 45, 2-pentafluoroethyl-5-methylsulfonyl-1,3,4-thiadiazole] | 100 |  |
| CC(Cl)(Cl)c1nnc(S(C)(=O)=O)s1 [Compound 47, 2-(1,1-dichloroethyl)-5-methylsulfonyl-1,3,4-thiadiazole] | 80 |  |
| CCC(Cl)c1nnc([S+](C)[O-])s1 (stereo not shown) [Compound 48, 2-(1-chloropropyl)-5-methylsulfinyl-1,3,4-thiadiazole] | > 100 |  |
| CCC(Cl)c1nnc(S(C)(=O)=O)s1 (stereo not shown) [Compound 49, 2-(1-chloropropyl)-5-methylsulfonyl-1,3,4-thiadiazole] | 100 |  |
| CC(Br)c1nnc(S(C)(=O)=O)s1 (stereo not shown) [Compound 50, 2-(1-bromethyl)-5-methylsulfonyl-1,3,4-thiadiazole] | 40 |  |
| CC(C)C(Br)c1nnc(S(C)(=O)=O)s1 (stereo not shown) [Compound 51, 2-(1-bromisobutyl)-5-methylsulfonyl-1,3,4-thiadiazole] | > 100 |  |
| CCCCC(Br)c1nnc(S(C)(=O)=O)s1 (stereo not shown) [Compound 52, 2-(1-bromopentyl)-5-methylsulfonyl-1,3,4-thiadiazole] |  | Limit concentration of fungicidal effectiveness, Pythium ultimum (Pythium ultimum [1]): no effect |
| CC(C)CC(Br)c1nnc(S(C)(=O)=O)s1 (stereo not shown) [Compound 53, 2-(1-bromisopentyl)-5-methylsulfonyl-1,3,4-thiadiazole] |  | Limit concentration of fungicidal effectiveness, Pythium ultimum (Pythium ultimum [1]): no effect |
| O=[N+]([O-])c1c(Cl)c(Cl)c(Cl)c(Cl)c1Cl [Pentachloronitrobenzene, reference compound] |  | Root evaluation (1-4) (Rhizoctonia solani; [6]): 1; Number of sound peas after 3 wks. (Rhizoctonia solani; [6]): 4; Root evaluation (1-4) (Rhizoctonia solani; [7]): 4; Number of sound peas after 3 wks. (Rhizoctonia solani; [7]): 25 |

— patent publication US4005213A, “2,5-Substituted-1,3,4-thiadiazoles as fungicides” (Schering Aktiengesellschaft, priority 1968, dated 1977)
